Assay results as given in patent US9427001B2, “Enhanced bioavailable iodine molecules” (ZINPRO CORPORATION, priority 2011, dated 2016).
Like-named read-outs stand apart in the source and are kept apart here.

How the values were obtained:
[1] = nonlactating pregnant beef cows; 60 mg Iodine/day for 10 days
[2] = nonlactating pregnant beef cows, bolus

Substance | Average Serum iodine level (day 2-day 14) [1] | Serum iodine Day 10 (last treatment day) [1] | Average Serum iodine level (day 2-day 14) ([2]; 60 mg Iodine/day for 10 days (day 0-day 10), average of day 2-14) | Serum iodine Day 10 (last treatment day) ([2]; 60 mg Iodine/day for 10 days, peak value at day 10) | Blood levels of iodine compared with CaIO3 or EDDI ([2]; 60 mg iodine day 0-day 10)
Zinc Hydroxy-Methylthio-Butyric Acid Iodide [Example III] | 386 | 630 |  |  | 
Zinc Lysine Diiodide [Structure I] |  |  | 184 | 380 | higher blood levels of iodine than CaIO3 or EDDI
